Assay results from US20240181087A1, “COMPOSITION FOR CONTRAST IMAGING OF CANCER” (ASTELLAS PHARMA INC., priority 2021, published 2024).

Test system: mouse tumor cell 4T1
Assay: near-infrared fluorescence imaging after administration into tumor, 4T1 breast cancer model
Assay type: in vivo
Details: 4T1 tumor, 1 mg/mL saline, fluorescence imaging, incl. during tumor excision operation
From the text: A syngeneic tumor transplanted mouse model was created as follows referring to “Gan-Shikkan Model no Sakusei to Riyo (Cancer-Creation and Use of Disease Model)” (Takuro Nakamura, LIC, 2012). • (Breast Cancer) A tumor model was created by breeding a normal Balb/c mouse (weight: about 20 g to 30 g) for 14 days with mouse tumor cell 4T1 subcutaneously administered thereto. • (Colorectal Cancer) A tumor model was created by breeding a normal Balb/c mouse (weight: about 20 g to 30 g) for 14 days with CT26 (colorectal cancer cell) subcutaneously administered thereto. • (Skin Cancer) A tumor model was created by breeding a C57BL/6 mouse (weight: about 15 g to 20 g) for 14 days with B16F1 (skin cancer cell) subcutaneously administered thereto.
Subsequently, to the tumor of each of the model mice, 0.02 to 0.05 mL of a saline containing the compound III or ICG (concentration of the compound III or ICG: 1 mg/mL) was administered, and fluorescence imaging was performed transdermally with a near-infrared fluorescence camera (Fluobeam, manufactured by Fluoptics, http://www.solve-net.com/info/wp-content/uploads/downloads/2013/12/Fluobeam.pdf) (excitation wavelength: 780 nm, detection wavelength: 800 nm or more).

With `CC1(C)C(/C=C/C=C/C=C/C=C2\N(CCCCS(=O)(=O)O)c3ccc4ccccc4c3C2(C)C)=[N+](CCCCS(=O)(=O)[O-])c2ccc3ccccc3c21` [ICG, indocyanine green, reference compound] the “drawing of tumor outline / exudation to surrounding tissues” value was “fluorescence signals were emitted outside the tumor tissue, and the outline of the tumor could not be drawn”.
